From patent publication US8389500B2, “Fused heterocyclic compounds as ion channel modulators” (Gilead Sciences, Inc., priority 2008, dated 2013)

Target: T1, wild-type human cardiac sodium channel, hNav1.5 (late sodium current) (Homo sapiens, UniProt Q14524)
T1 construct: host or cells: HEK293
Test: Late INa screening assay (PatchXpress whole cell patch clamp)
Type: cell-based
Conditions: 10 μM test compound; HEK293 hNav1.5; late INa generated with 10 μM Tefluthrin (some experiments 50 nM ATX II); read-out: Late INa % blk (10 μM test cmpd)
Summary of the method: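 Late sodium current block was assessed by automated whole cell patch clamp on a PatchXpress 7000A using HEK293 cells stably expressing wild-type human hNav1.5 without beta subunits. Late current was induced with 10 μM Tefluthrin or 50 nM ATX II. Channels were stepped from −120 mV to −20 mV for 250 ms at 0.1 Hz at 24-27° C. Current was normalized to 0Na baseline and expressed as percent block.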

T1 sequence (Q14524 whole entry): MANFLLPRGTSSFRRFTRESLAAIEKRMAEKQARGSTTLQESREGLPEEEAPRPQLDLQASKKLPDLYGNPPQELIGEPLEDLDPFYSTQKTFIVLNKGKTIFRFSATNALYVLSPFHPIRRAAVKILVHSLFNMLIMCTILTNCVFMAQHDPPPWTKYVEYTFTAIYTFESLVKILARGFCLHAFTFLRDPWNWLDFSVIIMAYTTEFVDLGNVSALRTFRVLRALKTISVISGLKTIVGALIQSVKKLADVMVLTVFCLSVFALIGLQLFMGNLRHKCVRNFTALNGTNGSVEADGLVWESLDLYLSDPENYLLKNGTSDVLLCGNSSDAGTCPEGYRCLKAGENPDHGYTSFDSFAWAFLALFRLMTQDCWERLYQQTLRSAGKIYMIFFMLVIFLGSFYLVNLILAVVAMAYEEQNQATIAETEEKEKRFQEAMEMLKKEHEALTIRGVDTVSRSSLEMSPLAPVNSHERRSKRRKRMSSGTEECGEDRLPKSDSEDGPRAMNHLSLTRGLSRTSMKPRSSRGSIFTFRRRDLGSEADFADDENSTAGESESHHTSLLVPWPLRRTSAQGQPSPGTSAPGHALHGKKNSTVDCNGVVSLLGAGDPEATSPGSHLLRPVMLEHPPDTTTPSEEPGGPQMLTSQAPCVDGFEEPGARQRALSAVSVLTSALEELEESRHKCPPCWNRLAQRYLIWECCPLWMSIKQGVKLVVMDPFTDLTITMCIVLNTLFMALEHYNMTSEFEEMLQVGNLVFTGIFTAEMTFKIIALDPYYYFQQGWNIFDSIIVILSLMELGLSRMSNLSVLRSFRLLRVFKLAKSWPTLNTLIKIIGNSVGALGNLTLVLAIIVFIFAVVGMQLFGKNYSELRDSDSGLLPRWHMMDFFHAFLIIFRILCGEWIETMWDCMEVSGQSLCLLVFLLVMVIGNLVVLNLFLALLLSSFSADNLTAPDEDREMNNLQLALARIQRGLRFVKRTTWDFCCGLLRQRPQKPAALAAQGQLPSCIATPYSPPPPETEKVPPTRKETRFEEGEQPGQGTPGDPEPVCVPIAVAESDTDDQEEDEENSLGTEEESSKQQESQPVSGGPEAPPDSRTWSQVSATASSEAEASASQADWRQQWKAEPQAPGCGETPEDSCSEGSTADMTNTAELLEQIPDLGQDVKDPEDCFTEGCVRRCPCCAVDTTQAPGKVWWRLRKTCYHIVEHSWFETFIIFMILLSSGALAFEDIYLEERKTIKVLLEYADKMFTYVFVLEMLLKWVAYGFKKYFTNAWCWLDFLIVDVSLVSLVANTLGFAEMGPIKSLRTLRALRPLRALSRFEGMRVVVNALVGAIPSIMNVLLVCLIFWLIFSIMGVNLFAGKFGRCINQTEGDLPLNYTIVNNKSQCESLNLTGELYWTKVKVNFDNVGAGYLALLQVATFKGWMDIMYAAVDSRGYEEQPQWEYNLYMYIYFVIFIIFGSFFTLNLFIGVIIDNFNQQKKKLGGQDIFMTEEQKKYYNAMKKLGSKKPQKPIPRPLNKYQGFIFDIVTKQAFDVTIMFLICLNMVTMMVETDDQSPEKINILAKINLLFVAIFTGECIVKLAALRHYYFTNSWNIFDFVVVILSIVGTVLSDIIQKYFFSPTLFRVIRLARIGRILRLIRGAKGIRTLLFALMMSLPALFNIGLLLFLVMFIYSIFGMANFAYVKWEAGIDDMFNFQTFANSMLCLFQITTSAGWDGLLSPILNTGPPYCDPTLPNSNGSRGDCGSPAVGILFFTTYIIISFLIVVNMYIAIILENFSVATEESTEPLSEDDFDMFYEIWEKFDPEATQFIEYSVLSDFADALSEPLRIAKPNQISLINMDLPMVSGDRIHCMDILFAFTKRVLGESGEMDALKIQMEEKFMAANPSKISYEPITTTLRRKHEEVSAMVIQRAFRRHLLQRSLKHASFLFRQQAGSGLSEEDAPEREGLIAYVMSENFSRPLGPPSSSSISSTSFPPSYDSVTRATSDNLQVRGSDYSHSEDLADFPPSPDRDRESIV

For `COC(=O)c1cc(-c2ccc(Oc3ccccc3)cc2)ccc1NS(=O)(=O)C1CC1` [PT-116, methyl 4-[(cyclopropylsulfonyl)amino]-4′-phenoxybiphenyl-3-carboxylate], the inhibition at 10 µM was 11.2%.
`O=C(O)c1cc(-c2ccc(Oc3ccccc3)cc2)ccc1NS(=O)(=O)C1CC1` [PT-117, 4-[(cyclopropylsulfonyl)amino]-4′-phenoxybiphenyl-3-carboxylic acid] was tested, and the inhibition at 10 µM was 40.7%.
With `COC(=O)c1cc(-c2ccc(Oc3ccccc3)cc2)ccc1NS(C)(=O)=O` [PT-118, methyl 4-[(methylsulfonyl)amino]-4′-phenoxybiphenyl-3-carboxylate] the inhibition at 10 µM was 40.8%.
For `CS(=O)(=O)Nc1ccc(-c2ccc(Oc3ccccc3)cc2)cc1OC(F)(F)F` [PT-119, N-[4′-phenoxy-3-(trifluoromethoxy)biphenyl-4-yl]methanesulfonamide], the inhibition at 10 µM was 6.6%.
`CS(=O)(=O)Nc1ccc(-c2ccc(Oc3ccccc3)cc2)cc1C(=O)O` [PT-120, 4-[(methylsulfonyl)amino]-4′-phenoxybiphenyl-3-carboxylic acid] gave an inhibition at 10 µM of 27%.
In the case of `COC(=O)c1cc(-c2ccc(C(F)(F)F)cc2)ccc1NS(C)(=O)=O` [PT-121, methyl 4-[(methylsulfonyl)amino]-4′-(trifluoromethyl)biphenyl-3-carboxylate], the inhibition at 10 µM is reported as 40.5%.
`CS(=O)(=O)Nc1ccc(-c2ccc(C(F)(F)F)cc2)cc1C(=O)O` [PT-122, 4-[(methylsulfonyl)amino]-4′-(trifluoromethyl)biphenyl-3-carboxylic acid] showed an inhibition at 10 µM of 25.4%.
With `N#Cc1cc(NS(=O)(=O)C2CC2)ccc1-c1ccc(Oc2ccccc2)cc1` [PT-124, N-(2-cyano-4′-phenoxybiphenyl-4-yl)cyclopropanesulfonamide] the inhibition at 10 µM was 32.2%.
`COc1cccc(S(=O)(=O)Nc2cccc(-c3ccc(Cl)cc3)c2)c1` [PT-127, N-(4′-chlorobiphenyl-3-yl)-3-methoxybenzenesulfonamide] was tested, and the inhibition at 10 µM was 25%.
Work on `CC(C)(C)OC(=O)CN(c1ccc(-c2ccc(C(F)(F)F)cc2)c(Cl)c1)S(C)(=O)=O` [PT-128, tert-butyl 2-(N-(2-chloro-4′-(trifluoromethyl)biphenyl-4-yl)methylsulfonamido)acetate] yielded an inhibition at 10 µM of 25.7%.
For `C#Cc1cc(NS(C)(=O)=O)ccc1-c1ccc(Oc2ccccc2)cc1` [PT-129, N-(2-ethynyl-4′-phenoxybiphenyl-4-yl)methanesulfonamide], the inhibition at 10 µM was 44.4%.
For `N#Cc1cc(NS(=O)(=O)C2CC2)ccc1-c1ccc(C(F)(F)F)cc1` [PT-130, N-(2-cyano-4′-(trifluoromethyl)biphenyl-4-yl)cyclopropanesulfonamide], the inhibition at 10 µM was 26%.
`CS(=O)(=O)Nc1cccc(-c2ccc(Oc3ccc(C(=O)O)cc3)cc2)c1` [PT-131, 4-(3′-(methylsulfonamido)biphenyl-4-yloxy)benzoic acid] showed an inhibition at 10 µM of 20.8%.
With `CS(=O)(=O)Nc1cccc(-c2ccc(C(F)(F)F)c(F)c2)c1` [PT-132, N-(3′-fluoro-4′-(trifluoromethyl)biphenyl-3-yl)methanesulfonamide] the inhibition at 10 µM was 65.9%.
`Cc1cc(N(Cc2ccc(CC(=O)O)cc2)S(=O)(=O)C2CC2)ccc1-c1ccc(Oc2ccccc2)cc1` [PT-133, 2-(4-((N-(2-methyl-4′-phenoxybiphenyl-4-yl)cyclopropanesulfonamido)methyl)phenyl)acetic acid] showed an inhibition at 10 µM of 34.1%.
Compound `COc1cc(N(Cc2ccc(C(=O)O)cc2)S(C)(=O)=O)ccc1-c1ccc(Oc2ccccc2)cc1` [PT-134, 4-((N-(2-methoxy-4′-phenoxybiphenyl-4-yl)methylsulfonamido)methyl)benzoic acid] has an inhibition at 10 µM of 3.9%.
`CS(=O)(=O)N(Cc1ccc(-c2nnn[nH]2)cc1)c1ccc(-c2ccc(Oc3ccccc3)cc2)c(Cl)c1` [PT-135, N-(4-(1H-tetrazol-5-yl)benzyl)-N-(2-chloro-4′-phenoxybiphenyl-4-yl)methanesulfonamide] gave an inhibition at 10 µM of 9.7%.
In the case of `Cc1cc(N(Cc2ccc(C(=O)O)cc2)S(C)(=O)=O)ccc1-c1ccc(Oc2ccc(F)cc2)cc1` [PT-136, 4-((N-(4′-(4-fluorophenoxy)-2-methylbiphenyl-4-yl)methylsulfonamido)methyl)benzoic acid], the inhibition at 10 µM is reported as 8.8%.
Compound `CNC(=O)c1cc(N(Cc2ccc(S(C)(=O)=O)cc2)S(C)(=O)=O)ccc1-c1ccc(Oc2ccccc2)cc1` [PT-138, N-methyl-4-(N-(4-(methylsulfonyl)benzyl)methylsulfonamido)-4′-phenoxybiphenyl-2-carboxamide] has an inhibition at 10 µM of 12.6%.
`CNC(=O)c1cc(NS(=O)(=O)C2CC2)ccc1-c1ccc(Oc2ccccc2)cc1` [PT-139, 4-(cyclopropanesulfonamido)-N-methyl-4′-phenoxybiphenyl-2-carboxamide] showed an inhibition at 10 µM of 43.7%.
`CC(C)NC(=O)c1cc(NS(C)(=O)=O)ccc1-c1ccc(Oc2ccccc2)cc1` [PT-140, N-isopropyl-4-(methylsulfonamido)-4′-phenoxybiphenyl-2-carboxamide] showed an inhibition at 10 µM of 47.4%.
In the case of `Cc1cc(N(Cc2ccc(C(=O)O)cc2)S(C)(=O)=O)ccc1-c1ccc(Oc2ccccc2)c(F)c1` [PT-141, 4-((N-(3′-fluoro-2-methyl-4′-phenoxybiphenyl-4-yl)methylsulfonamido)methyl)benzoic acid], the inhibition at 10 µM is reported as 23.8%.
Compound `Cc1cc(-c2ccc(Oc3ccccc3)cc2)c(F)cc1N(Cc1ccc(C(=O)O)cc1)S(C)(=O)=O` [PT-142, 4-((N-(2-fluoro-5-methyl-4′-phenoxybiphenyl-4-yl)methylsulfonamido)methyl)benzoic acid] has an inhibition at 10 µM of 2.7%.
Work on `Cc1cc(N(Cc2ccc([N+](=O)[O-])cc2)S(C)(=O)=O)ccc1-c1ccc(Oc2ccccc2)cc1` [PT-143, N-(2-methyl-4′-phenoxybiphenyl-4-yl)-N-(4-nitrobenzyl)methanesulfonamide] yielded an inhibition at 10 µM of 8.7%.
In the case of `Cc1cc(NS(C)(=O)=O)ccc1-c1ccc(OC(C)C)cc1` [PT-144, N-(4′-isopropoxy-2-methylbiphenyl-4-yl)methanesulfonamide], the inhibition at 10 µM is reported as 44.7%.
`CCOC(=O)c1ccc(CN(c2ccc(-c3ccc(OC(C)C)cc3)c(C)c2)S(C)(=O)=O)cc1` [PT-145, ethyl 4-((N-(4′-isopropoxy-2-methylbiphenyl-4-yl)methylsulfonamido)methyl)benzoate] gave an inhibition at 10 µM of 17.1%.
With `Cc1cc(N(Cc2ccc(C(=O)O)cc2)S(C)(=O)=O)ccc1-c1ccc(OC(C)C)cc1` [PT-146, 4-((N-(4′-isopropoxy-2-methylbiphenyl-4-yl)methylsulfonamido)methyl)benzoic acid] the inhibition at 10 µM was 3.65%.
`CC(C)Oc1ccc(-c2ccc(NS(C)(=O)=O)c(Cl)c2)cc1` [PT-148, N-(3-chloro-4′-isopropoxybiphenyl-4-yl)methanesulfonamide] showed an inhibition at 10 µM of 36.2%.
For `CS(=O)(=O)Nc1ccc(-c2ccc(Oc3ccc(F)cc3)cc2)cc1Cl` [PT-149, N-(3-chloro-4′-(4-fluorophenoxy)biphenyl-4-yl)methanesulfonamide], the inhibition at 10 µM was 58%.
With `Cc1cc(NS(=O)(=O)C2CC2)ccc1-c1ccc(C#N)cc1` [PT-150, N-(4′-cyano-2-methylbiphenyl-4-yl)cyclopropanesulfonamide] the inhibition at 10 µM was 22.5%.
Compound `Cc1cc(NS(=O)(=O)C2CC2)ccc1-c1ccc(OC(C)C)cc1` [PT-151, N-(4′-isopropoxy-2-methylbiphenyl-4-yl)cyclopropanesulfonamide] has an inhibition at 10 µM of 32.6%.
With `CC(C)Oc1ccc(-c2ccc(NS(=O)(=O)C3CC3)c(C#N)c2)cc1` [PT-152, N-(3-cyano-4′-isopropoxybiphenyl-4-yl)cyclopropanesulfonamide] the inhibition at 10 µM was 29%.
Compound `CS(=O)(=O)N(Cc1ccc(C(=O)O)cc1)c1cccc(-c2ccc(C(F)(F)F)c(F)c2)c1` [PT-154, 4-((N-(3′-fluoro-4′-(trifluoromethyl)biphenyl-3-yl)methylsulfonamido)methyl)benzoic acid] has an inhibition at 10 µM of 7%.
`CS(=O)(=O)N(Cc1ccc(C(=O)O)cc1)c1ccc(-c2ccc(Oc3ccccc3)cc2)cc1` [PT-156, 4-((N-(4′-phenoxybiphenyl-4-yl)methylsulfonamido)methyl)benzoic acid] gave an inhibition at 10 µM of 7.9%.
In the case of `CC(C)Oc1ccc(-c2ccc(NS(=O)(=O)C3CC3)c(-c3nn[nH]n3)c2)cc1` [PT-157, N-(4′-isopropoxy-3-(2H-tetrazol-5-yl)biphenyl-4-yl)cyclopropanesulfonamide], the inhibition at 10 µM is reported as 5.8%.
In the case of `Cc1cc(NS(=O)(=O)C2CC2)ccc1-c1ccc(-c2nn[nH]n2)cc1` [PT-158, N-(2-methyl-4′-(2H-tetrazol-5-yl)biphenyl-4-yl)cyclopropanesulfonamide], the inhibition at 10 µM is reported as 2.8%.
Work on `COP(=O)(O)c1cc(-c2ccc(Oc3ccc(F)cc3)cc2)ccc1NS(C)(=O)=O` [PT-159, methyl hydrogen 4′-(4-fluorophenoxy)-4-(methylsulfonamido)biphenyl-3-ylphosphonate] yielded an inhibition at 10 µM of 36.1%.
With `CS(=O)(=O)N(Cc1ccc(CC(=O)O)cc1)c1ccc(-c2ccc(Oc3ccccc3)cc2)c(Cl)c1` [PT-161, 2-(4-((N-(2-chloro-4′-phenoxybiphenyl-4-yl)methylsulfonamido)methyl)phenyl)acetic acid] the inhibition at 10 µM was 30.9%.
`O=C(NCCO)c1cc(-c2ccc(C(F)(F)F)cc2)ccc1NS(=O)(=O)C1CC1` [PT-162, 4-(cyclopropanesulfonamido)-N-(2-hydroxyethyl)-4′-(trifluoromethyl)biphenyl-3-carboxamide] gave an inhibition at 10 µM of -5.3%.
`CS(=O)(=O)Nc1ccc(-c2ccc(Oc3ccccc3)cc2)c(N)c1` [PT-163, N-(2-amino-4′-phenoxybiphenyl-4-yl)methanesulfonamide] showed an inhibition at 10 µM of 54.7%.
`CS(=O)(=O)Nc1ccc(-c2ccc(C(F)(F)F)cc2)c(N)c1` [PT-164, N-(2-amino-4′-(trifluoromethyl)biphenyl-4-yl)methanesulfonamide] was tested, and the inhibition at 10 µM was 12.2%.
`CS(=O)(=O)Nc1ccc(-c2ccc(C(F)(F)F)cc2)c(NC(=O)c2cccnc2)c1` [PT-165, N-(4-(methylsulfonamido)-4′-(trifluoromethyl)biphenyl-2-yl)nicotinamide] gave an inhibition at 10 µM of -0.3%.
